Results as given in article PMC11887451, “Leveraging Immunogenic Cell Death to Enhance the Immune Response against Malignant Pleural Mesothelioma Tumors” (Journal of the American Chemical Society, 2025).

Tested on: calreticulin (CRT) in AB12 cells
Experiment: CRT detection, flow cytometry
Format: cell-based, mouse
Settings: AB12, 5 × IC50 (72 h), 120 min
Experimental: page 23: concentrations for 100 min at 37 °C. After the treatment, the supernatant was collected in 2 mL microtubes, centrifuged (300 × g, 5 min) and the media was removed. The adherent cells were then trypsinized with 500 μL of trypsin at 37 °C for 5 min. Next, 1 mL of medium was added to neutralize trypsin and the resulting cell suspension was combined with the supernatant. The wells were washed with 200 μL of PBS, which was also combined with the supernatant. The combined solutions were centrifuged (300 × g, 5 min), and the resulting pellets were washed with PBS (2 × 1 mL) and resuspended in 200 μL of Annexin V binding buffer. […] Cell death was evaluated by flow cytometry using a CytoFLEX Flow Cytometer equipped with a 488 nm laser and a 638 nm laser (Beckman Coulter, Brea, CA, USA). The cells were excited by the 488 nm laser, and fluorescence emissions were detected at 525/40 nm for FITC (Annexin V) and at 610/20 nm for ECD (PI). […] The percentage of necrosis was determined by calculating the sum of cells in Q1 and Q2. […] Next, cells were incubated with CRT antibody conjugated with AlexaFluor S23 page 24: 488 (62304S, Cell Signaling Technology) at 4 °C overnight, washed twice with PBS, reconstituted in 500 µL of PBS and analyzed by flow cytometry using a CytoFLEX Flow Cytometer equipped with a 488 nm laser and a 638 nm laser (Beckman Coulter, Brea, CA, USA). […]

For `Nc1nc2[nH]cc(CCc3ccc(C(=O)N[C@@H](CCC(=O)O)C(=O)O)cc3)c2c(=O)[nH]1` [Pemetrexed, pemetrexed, reference compound], the “CRT expression (in words)” value was “no changes in CRT expression”.
